Data on 1 compound can be found in patent publication US11559528B2, “BACE1 inhibition for the treatment of cancer” (The Cleveland Clinic Foundation, priority 2019, dated 2023).

Data set [1] has as its system GBM xenografts derived from T4121 GSCs. The data set can be described thus: Intracranial GBM xenografts from T4121 glioma stem cells. The data set is classed as in vivo, mouse. The source says:
FIG. 4, panels A-F. BACE1 Inhibition by MK-8931 Converts M2 TAMs into M1 Macrophages to Phagocytize Glioma Cells in GBM Xenografts. (A and B) Density analysis of M2 TAMs by immunofluorescent staining of the M2 TAM marker (CD163 or FIZZ1) and the total TAM marker IBA1 and in GBM xenografts treated with MK-8931 or vehicle control. GBM xenografts were established by implantation of glioma stem cells (T4121) through intracranial injection. […] Representative immunofluorescent images (A) showing M2 TAMs (CD163^+ or FIZZ1^+, in red) and total TAMs (IBA1^+, in green) in the MK-8931-treated or control GBM xenografts. […] (C and D) Density analysis of M1 TAMs by immunofluorescent staining of the M TAM marker (HLA-DR or CD11c) and the total TAM marker IBA1 and in GBM xenografts treated with MK-8931 or vehicle control. […] Representative immunofluorescent images (C) showing M1 TAMs (HLA-DR^+ or CD11c^+, in red) and total TAMs (IBA1^+, in green) in the MK-8931-treated or control GBM xenografts. […] (E and F) In vivo phagocytosis of TAMs against human glioma cells in the MK-8931-treated or control GBM xenografts. […] Representative images (E) showing in vivo TAM phagocytosis as inclusion bodies of glioma cells (TRA-1-85^+, in red) with TAMs (IBA1, in green) in the MK-8931 treated GBM xenografts but not in the control tumors. […] Scale bar represents 30 μM. Ctl: Control; MK: MK-8931.

The subject of a further data set is GBM xenografts (T387). The data set can be described thus: Intracranial GBM xenografts from T387 glioma stem cells. It counts as in vivo, mouse. The text has this:
FIG. 13, panels A-C. BACE1 Inhibition by MK-8931 Converts M2 TAMs into M1 Macrophages in GBM Xenografts. (A and B) Density analysis of M2 TAMs by immunofluorescent staining of the M2 TAM marker (CD163 or FIZZ1) and the total TAM marker IBA1 and in GBM xenografts (T387) treated with MK-8931 or vehicle control. GBM xenografts were established by implantation of glioma stem cells (T387) through intracranial injection. […] Representative immunofluorescent images (A) showing M2 TAMs (CD163′ or FIZZ1^+, in red) and total TAMs (IBA1^+, in green) in the MK-8931-treated or control GBM xenografts. […] (C and D) Density analysis of M1 TAMs by immunofluorescent staining of the M TAM marker (HLA-DR or CD11c) and the total TAM marker IBA1 and in GBM xenografts (T387) treated with MK-8931 or vehicle control. […] Representative immunofluorescent images (C) showing M1 TAMs (HLA-DR^+ or CD11c^+, in red) and total TAMs (IBA1^+, in green) in the MK-8931-treated or control GBM xenografts. […] Scale bars represent 3 μM. Ctl: Control; MK: MK-8931.
(A-C) A preclinical trial of MK-8931 for GBM treatment in GSC-derived xenograft models. […] When humane endpoints occur, mouse was anesthetized and brain bearing tumor was harvested. Representative bioluminescent images (A) of intracranial GBM xenografts treated with MK-8931 or the vehicle control on day 7 (before treatment), day 17 and day 27 (treatment for 10 and 20 days) are shown. […] (D and E) In vivo phagocytosis of TAMs against human glioma cells in GBM xenografts treated with MK-8931 or the vehicle control. […] Representative images (D) showing in vivo TAM phagocytosis as the inclusion body of a glioma cell (TRA-1-85+, in red) within a TAM (IBA1^+, in green) in the MK-8931 treated GBM xenografts but not in the control tumors. […] (F and G) Detection of apoptosis by immunofluorescent staining of cleaved caspase-3 the GSC-derived xenografts treated with MK-8931 or the vehicle control. […] (H and I) Vessel density analysis by immunofluorescent staining of CD31 in the GSC-derived xenografts treated with MK-8931 or the vehicle control.

The conditions of data set [2]: cited from earlier work.
For data set [3], the system named is U937-derived M2 macrophages. Put plainly: Immunoblot of macrophage markers in U937-derived M2 macrophages. Also noted: expression of M2 macrophage markers (CD163 and ARG1): dose or concentration left out as unconfirmed.
Description: In brief, U937 cells were primed by PMA (5 nM) for two days to generate M0 macrophages and then incubated with IL4 (20 ng/mL), IL10 (20 ng/mL), and TGFβ (20 ng/mL) for three days to produce M2-like macrophages. (B) Immunoblot analyses of BACE1, the M2 macrophage markers (CD163 and ARG1), and the total macrophage marker IBA1 in U937 monocytes and the U937-derived M2 macrophages expressing shRNAs against BACE1 (shBACE1) or non-targeting sequence (NT). […] (D) Immunoblot analyses of the M2 macrophage markers (CD163 and ARG1), the M1 macrophage markers (iNOS and HLA-DR), and the total macrophage marker IBA1 in the U937-derived M2 macrophages expressing shRNAs against BACE1 (shBACE1: #1 or #2) or non-targeting control (shNT). The U937-derived M2 macrophages were transduced with shBACE1 shNT through lentiviral infection.
In brief, U937 cells grown in a 10-cm tissue culture dish were primed by PMA (5 nM) for two days to produce M0 macrophages. Then the M0 macrophages were further induced by IL4 (20 ng/mL, Peprotech, 200-04), IL10 (20 ng/mL, Peprotech, 200-10), and TGFβ (20 ng/mL, Peprotech, 200-21) for three days to generate M2 macrophages.
In brief, cells were lysed with the RIPA buffer [50 mM TrisHCl (pH7.4), 150 mM NaCl, 2 mM EDTA, 1% (v/v) NP-40, 0.1% (w/v) SDS, protease inhibitor (one tablet per 10 mL RIPA buffer, Roche)] for 20 minutes on ice. […] The lysates were collected and subjected to SDS-PAGE and blotted onto the PVDF membranes (ASI, XR730). After blockade with 5% (w/v) non-fat milk (RPI, M17200) in TBST, the membranes were incubated with primary antibodies overnight at 4° C. After the incubation of the first antibodies, the membranes were washed three times with TBST for ten minutes each. Then, the membranes were incubated with the second HRP-linked antibodies in the 5% milk for one hour at room temperature.
[4] abbreviates: 30 mg/kg once daily oral gavage two weeks.
Setting [5] is: 30 mg/kg once daily oral gavage two weeks, p<0.001.
[6] abbreviates: 30 mg/kg once daily oral, p<0.01.
Setting [7] is: 30 mg/kg once daily oral, p<0.05.
Where [8] appears, read: 0, 5, 10, 25, 50, and 100 μg/mL for three days.
The mark [9] stands for this setting: 50 μg/mL for 0, 12, 24, 48, 72, or 96 hours.

“Also recorded” adds a separate entry of the source.

As to `CN1C(N)=N[C@](C)(c2cc(NC(=O)c3ccc(F)cn3)ccc2F)CS1(=O)=O` [MK-8931], in data set [1] (setting [4]), the “IBA1+/pSTAT3+ double positive cells (TAMs)” value was “significantly reduced STAT3 activating phosphorylation in TAMs” and the “pSTAT3+ cells in xenografts” value is listed as “significantly reduced STAT3 activating phosphorylation in GBM xenografts”. In data set [1] (setting [5]), the “density of M1 TAMs (HLA-DR+/IBA1+ or CD11c+/IBA1+)” value was “significantly increased density of M1 TAMs” and the “density of M2 TAMs (CD163+/IBA1+ or FIZZ1+/IBA1+)” value is “significantly reduced density of M2 TAMs”. In data set [1] (30 mg/kg once daily oral gavage, p<0.01), the “in vivo TAM phagocytosis (inclusion bodies of TRA-1-85+ glioma cells with IBA1+ TAMs)” value is recorded as “promoted TAM phagocytosis”. In the data set with GBM xenografts (T387) (setting [5]), the “density of M1 TAMs (HLA-DR+/IBA1+ or CD11c+/IBA1+)” value is listed as “significantly increased density of M1 TAMs” and the “density of M2 TAMs (CD163+/IBA1+ or FIZZ1+/IBA1+)” value is “significantly reduced density of M2 TAMs”. Further, the “tumor growth (mean bioluminescence)” value in the data set with GBM xenografts (T387) (30 mg/kg once daily oral, day 7, 17 and 27) is recorded as “Suppressed GBM Tumor Growth”. Also, in the data set with GBM xenografts (T387) (30 mg/kg once daily oral, log-rank p<0.05), the “survival (Kaplan-Meier)” value is on record as “significantly extended the survival of animals bearing the GBM xenografts”. Moreover, in the data set with GBM xenografts (T387) (setting [6]), the “apoptosis (cleaved caspase-3+ cells)” value is reported as “significantly increased apoptosis”, the “in vivo TAM phagocytosis (inclusion bodies)” value was “promoted TAM phagocytosis” and the “proliferative cells (Ki-67+)” value was “significantly reduced proliferative cells”. Further, in the data set on GBM xenografts (T387) (setting [7]), the “GSC population (SOX2+ cells)” value was “significant reduced GSCs” and the “vessel density (CD31)” value is given as “significantly reduced vessel density”. In data set [2] (AD patients), the “efficacy in phase 3 AD clinical trials” value was “ineffectiveness in controlling AD progression or improving life quality of AD patients”. The “tolerability / safety in AD clinical trials” value in data set [2] (patients, Phase I to Phase III) is “well-tolerated for patients; also recorded: very safe in the clinical trials for AD treatment; also recorded: well-tolerated in human and showed little toxic effect; also recorded: very safe for patients”. In data set [3] (setting [8]), the “M1 marker expression (iNOS and HLA-DR), dose series” value was “induced M1 marker expression”; the “M2 marker expression (CD163 and ARG1), dose series” value is recorded as “inhibited M2 marker expression in a dose-dependent manner”. Also, in data set [3] (setting [9]), the “M1 marker expression (iNOS and HLA-DR), time course” value is “induced M1 marker expression in a time-dependent fashion”; the “M2 marker expression (CD163 and ARG1), time course” value is “inhibited M2 marker expression”. The “M2 to M1 switch with ectopic expression of constitutively activated STAT3 (STAT3-C)” value in data set [3] (MK-8931 50 μg/mL three days, STAT3-C-Flag vs vector) was “attenuated the M2 to M1 switch induced by MK-8931 treatment”. Also, in data set [3] (MK-8931 (50 g/mL) three days), the “expression of total macrophage marker IBA1” value was “little effect”. Also, the “expression of M2 macrophage markers (CD163 and ARG1)” value in data set [3] (MK-8931 three days) is recorded as “reduced expression of the M2 macrophage markers”.
